From patent US7842471B2, “Ultra sensitive biosensor for detecting bio-signal transmitters, and detector and detecting method using the same” (priority 2007, dated 2010)

How the values were obtained:
[1] = test system: cultured cortical astrocytes; assay: sniffer-patch detection of glutamate release from cultured wild-type astrocytes with GluR1(L497Y)-transfected HEK cells; format: cell-based, mice; conditions: for inward current in HEK cells expressing GluR1(L497Y): brief (<1 sec) pressure application, 500 μM TFLLR, 300 μM ATP, 180 μM bradykinin, wild-type astrocytes
Experimental: (§1) HEK 293 cells were transfected with a 1:3.5 ratio of GFP and GluR1(L497Y) using the calcium phosphate method using effectence for 6-8 hours, after which the media was replaced and supplemented with 1 mM kynurenic acid and 10 μM N-(4-hydroxyphenylpropanoyl) spermine or 10 μM CNQX. The transfected HEK cells were subsequently trypsinized and replated onto astrocyte feeder layers derived from either wild-type or PAR1−/− mice 24 hours post-transfection, and recordings were performed 24 hours after replating. The prepared transfectant was used as a biosensor in the following examples.
In this experimental example, the glutamate release from astrocytes was quantitatively evaluated in real time by a “sniffer-patch” detection system. […] The “sniffer-patch” method was performed according to “T. G. J. Allen, Trends Neurosci., Vol. 20, No. 5 pp. […], 1997”, unless there is different mention thereto.
Cultured astrocytes were prepared from P0-P3 postnatal mice obtained from KIST SPF. The cerebral cortex was dissected free of adherent meninges, minced, and dissociated into single cell suspension by trituration through a Pasteur pipette. All procedures involving the use of animals were reviewed and approved by the Emory University IACUC. Dissociated cells were plated onto either 12 mm glass coverslips or 6 well plates coated with 0.1 mg/ml poly-D-lysine. Cells were grown in DMEM media (Gibco, cat# 11960-044) supplemented with 25 mM glucose, 10% heat-inactivated horse serum, and 10% heat-inactivated fetal bovine serum, 2 mM glutamine, and 1000 units/ml penicillin-streptomycin. Cultures were maintained at 37° C. in a humidified 5% CO2-containing atmosphere. Astrocyte cultures prepared in this way were previously determined by GFAP (glial fibrillary acidic protein) staining to be greater than 95% astrocytes (Nicole et al., 2005). In some experiments, the culture media was replaced 24 hours after plating with DMEM with all added components except glutamine, and cultures were maintained for 4 days before experimentation in glutamine-free media.
Thus, this technique provides millisecond time resolution for the detection of micromolar levels of glutamate released from astrocytes.
(§2) GluR1(L497Y)-transfected HEK cells were directly plated onto an astrocyte monolayer, and subsequently the whole cell HEK current response under voltage clamp during brief 0.2 sec application of the PAR1 activator TFLLR (500 μM), ATP (300 μM), or bradykinin (180 μM), respectively, from a pressurized pipette was recorded (FIGS. 1a, and 1b).

[2] = test system: wild-type astrocytes; assay: Fura-2 Ca2+ imaging in wild-type astrocytes; format: cell-based, mice; conditions: brief (<1 sec) pressure application; 500 μM TFLLR, 300 μM ATP, 180 μM bradykinin; Fura-2-AM
Experimental: (§3) FIG. 1a is a schematic illustrating experimental setup and a GFP fluorescent image of astrocyte—GluR1(L497Y)/GFP transfected HEK cell co-culture (upper left panel). […] The Fura2-AM loading was performed by incubating with 5 μM Fura2-AM in 1 μM pluronic acid (Molecular Probes) for 30 min at room temperature. The calibration bar is 20 μm.

[3] = test system: cultured neurons; assay: glutamate release from cultured neurons detected with GluR1(L497Y)-transfected HEK cells; format: cell-based
Experimental: To verify this prediction, effects of a hyperosmotic solution on the glutamate-release from cultured neurons and astrocytes were evaluated and are shown in FIGS. 3a to 3c.
The detection is abolished by the treatment of 10 μM CNQX. The right panel is the summary of the current amplitude changes; *p<0.05; paired t-test (n=6).
That is, a brief application of TFLLR caused no detectable glutamate-induced current in GluR1(L497Y)-transfected HEK cells adjacent to neurons.

[4] = test system: NR1-1a/NR2A2D; assay: D-serine or glycine release from astrocytes detected with NR1-1a/NR2A2D-transfected HEK cells; format: cell-based; conditions: 100 uM glutamate + 10 uM DCKA vs 100 uM glutamate alone; 500 uM TFLLR
Experimental: HEK 293 cells were transfected NR1-1a and NR2A2D at a ratio of 1:2 by using the calcium phosphate method using effectence for 6-8 hours, after which the media was replaced and supplemented with 5 mM magnesium chloride and 10 μM D-2-amino-phosphonopentanoic acid or 10 μM D-AP5. The transfected HEK cells were subsequently trypsinized and replated onto astrocyte feeder layers derived from wild-type 24 hours post-transfection, and recordings performed 24 hours after replating. The prepared transfectant was used as a biosensor in the following examples.
To activate the NMDA receptor, it is necessary for the two subunits to bind to the corresponding binding materials, respectively. The activation may be confirmed by measuring intracellular inward current.
In this example, the media was supplemented with sufficient glutamate to saturate the glutamate domain. The intracellular inward current in the biosensor prepared in Example 5, under the conditions with or without treating a glycine binding domain blocker, DCKA, which artificially makes a glycine-free or D-serine-free condition, to examine the glycine or D-serine detecting ability of the biosensor.

[5] = target: T1, GluR1(L497Y) (Rattus norvegicus, UniProt P19490, L497Y); assay: glutamate activation of GluR1(L497Y) current in transfected HEK cells (dose response); format: cell-based
T1 construct: expressed in transfected cells; host or cells: HEK 293 cells (ATCC1573)
Experimental: as §1

[6] = test system: acutely dissociated CA1 astrocytes; assay: glutamate release from acutely dissociated CA1 hippocampal astrocytes detected with GluR1(L497Y)-transfected HEK cells; format: cell-based, mice; conditions: brief (1 sec) application of TFLLR; n=4
Source text: Cells were acutely dissociated from the CA1 region of hippocampal slices prepared from transgenic mice (Jackson Laboratories) expressing GFP under control of the GFAP promoter (Brenner et al., 1994), allowing to unambiguously identify isolated hippocampal astrocytes that had not been subject to tissue culture. Cells were dissociated directly onto GluR1(L497Y)-transfected HEK cells obtained in Example 1.

[7] = test system: PAR1-/- astrocytes; assay: Ca2+-sensitive dye imaging in PAR1-/- astrocytes; format: cell-based, mice; conditions: TFLLR application
Experimental: as §3
(§4) These control experiments were performed on the same day as TFLLR stimulation of HEK cells on wild-type astrocytes, and confirm that PAR1 activators had no direct effect on GluR1(L497Y) currents in HEK cells.

[8] = test system: PAR1-/- astrocytes; assay: sniffer-patch detection of glutamate release from PAR1-/- astrocytes with GluR1(L497Y)-transfected HEK cells; format: cell-based, mice
Experimental: as §1, §2

[9] = test system: HEK cells; assay: Ca2+-sensitive dye imaging in HEK cells (endogenous PAR1); format: cell-based; conditions: TFLLR application, co-culture on PAR1-/- astrocytes
Experimental: as §3, §4

T1 sequence (P19490 19-907 L497Y): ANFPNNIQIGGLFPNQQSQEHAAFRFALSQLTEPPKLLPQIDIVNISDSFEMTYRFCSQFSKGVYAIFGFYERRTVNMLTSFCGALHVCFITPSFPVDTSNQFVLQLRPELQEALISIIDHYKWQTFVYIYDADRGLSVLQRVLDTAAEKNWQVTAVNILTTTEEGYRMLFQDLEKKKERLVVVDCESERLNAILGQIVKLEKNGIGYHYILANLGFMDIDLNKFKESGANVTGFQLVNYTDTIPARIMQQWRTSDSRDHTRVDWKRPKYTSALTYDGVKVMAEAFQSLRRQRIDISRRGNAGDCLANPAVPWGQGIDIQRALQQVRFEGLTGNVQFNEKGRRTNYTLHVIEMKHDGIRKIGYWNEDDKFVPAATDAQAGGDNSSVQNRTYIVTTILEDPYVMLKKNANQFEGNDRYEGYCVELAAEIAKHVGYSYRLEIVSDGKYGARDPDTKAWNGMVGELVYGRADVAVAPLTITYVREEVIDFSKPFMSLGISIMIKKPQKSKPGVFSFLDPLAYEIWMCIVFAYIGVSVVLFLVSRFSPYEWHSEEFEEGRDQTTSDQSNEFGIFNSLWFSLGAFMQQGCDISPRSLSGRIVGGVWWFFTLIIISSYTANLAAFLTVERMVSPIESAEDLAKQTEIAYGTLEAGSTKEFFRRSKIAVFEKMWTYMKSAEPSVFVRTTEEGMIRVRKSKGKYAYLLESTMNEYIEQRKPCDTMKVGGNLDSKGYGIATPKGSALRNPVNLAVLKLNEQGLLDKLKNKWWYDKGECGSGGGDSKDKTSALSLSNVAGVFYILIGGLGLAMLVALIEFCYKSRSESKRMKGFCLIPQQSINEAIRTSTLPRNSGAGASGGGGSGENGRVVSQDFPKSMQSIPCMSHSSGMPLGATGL

## Nc1ncnc2c1ncn2[C@@H]1O[C@H](COP(=O)(O)OP(=O)(O)OP(=O)(O)O)[C@@H](O)[C@H]1O [ATP]
[1]
  inward current in HEK cells expressing GluR1(L497Y): elicited an inward current
[2]
  astrocytic intracellular Ca2+: increased

## N#Cc1cc2[nH]c(=O)c(=O)[nH]c2cc1[N+](=O)[O-] [CNQX]
[1]; CNQX 10 μM, glutamine-free medium
  effect on inward currents evoked by TFLLR: completely abolished
[3]; 10 μM CNQX, hyperosmotic solution 530 mosmol
  effect on detection of neuronal glutamate release evoked by hyperosmotic solution: abolished

## O=C(O)c1cc(=O)c2c(Cl)cc(Cl)cc2[nH]1 [DCKA, 5,7-dichlorokynurenic acid]
[4]
  inward current value after treating TFLLR: considerably decreased

## N[C@@H](CCC(=O)O)C(=O)O [glutamate]
[5]
  Hill slope: 1.3

## TFLLR
[6]
  glutamate release (concentration) evoked by TFLLR: 1.46 ± 0.54 µM
[1]; astrocytes cultured in the absence of glutamine, TFLLR 500 μM, n=4
  current response, % of the maximal response: 9.7 ± 1.3%
[1]
  inward current in HEK cells expressing GluR1(L497Y): elicited an inward current
[1]; percent of maximal response, applied to wild-type astrocytes, glutamine-containing medium, TFLLR 500 μM in pipette
  glutamate evoked current (%): 10±2.6%
[1]; same-day positive control, TFLLR or hyperosmotic solution, n=4
  glutamate-induced current in GluR1(L497Y) HEK cells on astrocytes: 136±35 pA
[1]; wild-type astrocyte cultures, TFLLR application, converted from current by Formula 1
  peak (maximum) glutamate concentration: 1.1 ± 0.24 µM
[7]
  PAR1-/- astrocytic intracellular Ca2+: did not alter
[8]; PAR1-/- astrocyte cultures, TFLLR application, converted from current by Formula 1
  peak (maximum) glutamate concentration: 0.23 ± 0.13 µM
[8]; percent of maximal response, applied to PAR1-/- astrocytes
  glutamate evoked current (%): 1.4±0.9%
[2]
  astrocytic intracellular Ca2+: increased
[3]; 30 μM TFLLR or hyperosmotic solution, n=3
  glutamate-induced current in GluR1(L497Y) HEK cells adjacent to neurons: 3.0±0.1 pA
[9]
  HEK cell intracellular Ca2+: did increase
